Test results reported in US20230303503A1, “CELL ACTIVATABLE IRON CHELATORS” (BOARD OF REGENTS, THE UNIVERSITY OF TEXAS SYSTEM, priority 2020, published 2023).
Where “and” joins values, the source holds several entries; their conditions need not be identical. Identical values can stand only once. Like-named read-outs stand apart in the source and are kept apart here.

Experiments:
[1] = Behaviour in aqueous media (solubility, aggregation, DLS); type: physicochemical; conditions: water; neutral pH for ExJade
Procedure: Several new ExJade derivatives, designed to control solubility and modulate the intrinsic electronic features, namely ExPh, ExPh-OMe, ExH, ExBT, ExBT-OMe and ExPhos, were prepared. […] In marked contrast to what is seen in aqueous environments, solutions of ExPh and ExBT in most common organic solvents display no appreciable emission.
No significant fluorescence quenching was seen upon changing the solvents in which ExPh-OMe and ExBT-OMe were analyzed - DMSO, PhMe, THF, DCM, acetone, MeCN, MeOH and PBS. […] This putative ICT phenomenon has been observed in structurally similar N-phenylpyrrole analogues (Yoshihara et al., 2005; Yoshihara et al., 2003). Further support for the proposed aqueous induced aggregation mechanism invoked in the case of ExPh and […] came from studies of the parent system, ExJade.

[2] = tested on: A549 human lung cancer cell line; assay: MTT cell viability / antiproliferative assay in A549 cells; type: cell-based; conditions: for IC50: A549, MTT, triplicate
Procedure: Cell culture. A549 cells (ATCC® CCL-185™) were maintained in growth medium consisting of RPMI 1640 Medium (Sigma-Aldrich, MO, USA) supplemented with 10% fetal bovine serum (Sigma-Aldrich, MO, USA) and 2% Penicillin/Streptomycin (Sigma-Aldrich, MO, USA). Cells were kept in a humidified atmosphere of 5% CO2 and 95% air at 37° C. and were split when they reached 90% confluency.
Cell viability assay. 1500 cells per well were plated on a 96-well plate (12 rows × 8 wells per row) in 100 µL growth medium and kept at 37° C. under 5% CO2. 24 h after seeding, cells were treated with another 100 µL growth medium containing different concentrations of the drug under evaluation. Cells in each row of the 96-well plate were treated with the same concentration of drug and the first two rows were kept as control and treated with growth medium alone. The highest drug concentration evaluated was 250 µM and lower concentrations were produced via serial dilution by a factor of 3. Treated cells were kept at 37° C. under 5% CO2 for 72 h. Then, 50 µL RPMI 1640 Medium without fetal bovine serum and penicillin/streptomycin containing 3 mg/mL 3-(4,5-dimethylthiazol-2-yl)-2,5-diphenyltetrazolium bromide (Sigma-Aldrich, MO, USA) was added to each well and cells were kept at 37° C. under 5% CO2 for another 4 h. Subsequently, the medium was removed, and the precipitated formazan dye taken up in DMSO (50 µL). The absorbance of the solutions was measured at 540 nm with an M5 microplate reader (Molecular Devices, USA) and 0.33 absorbance units were subtracted from all wells (this absorbance value corresponds to wells containing DMSO without dye - control). The absorbance of each row of wells were averaged and were directly proportional to the number of viable cells after drug treatment.
The antiproliferative activity of compounds 1-10 was evaluated in A549 lung cancer cells, a cell line with a well- established sensitivity to iron imbalance (Loza-Rosas et al., 2017; Ohara et al., 2013). For each compound, cellular proliferation profiles were produced via a standard MTT (3-(4,5-dimethylthiazol-2-yl)-2,5-diphenyltetrazolium bromide) assay for exposure times of 72 h and 24 h, respectively. From these proliferation profiles, averaged IC50 values and Hill slope (HS) parameters were determined via linear regression analysis.

[3] = tested on: Klebsiella pneumoniae (ATCC 13883); assay: Bacterial growth inhibition; type: cell-based
Procedure: (§1) Similarly, the bacterial inhibitory effect of the present ExJade derivatives was then evaluated. Initial tests were focused on two Gram-negative, ESKAPE bacteria (Mulani et al., 2019), Pseudomonas aeruginosa (ATCC 27853) and Klebsiella pneumoniae (ATCC 13883). Arbekacin, an FDA-approved aminoglycoside-based antibiotic, was used as positive control.

[4] = tested on: Pseudomonas aeruginosa (ATCC 27853); assay: Bacterial growth inhibition; type: cell-based
Procedure: as §1
(§2) This observation confirms the Fe(III) chelation dependent inhibitory activity. Due to the Fe(III) chelation dependent nature of the ExJade derivatives and to illustrate their potential “real life” utility, the inhibitory activity of ExBT and ExPhos against MRSA were evaluated in a blood containing medium consisting of agar and defibrillated amniotic blood (Filipowicz et al., 2003).

P. aeruginosa biofilms = assay: Live/dead biofilm viability assay on glass slides; type: cell-based, Pseudomonas aeruginosa; conditions: CFP-SUL 16 µg/mL alone or combined with chelator 64 µg/mL
Procedure: (§3) FIGS. 11A & 11B show biofilm experiments. (FIG. 11A) Evaluation of CFP-SUL (cefoperazone-sulbactam; 16 µg/mL), CFP-SUL@ExBT (16 µg/mL@64 µg/mL), CFP-SUL@deferasirox (16 µg/mL@64 µg/mL), and CFP-SUL@ExPhos (16 µg/mL@64 µg/mL) for the treatment of P. aeruginosa and MRSA biofilms. Processed 3D images of P. aeruginosa and MRSA biofilms on glass slides using the live/dead biofilm viability assay. Distributions of PI-stained (red, dead bacteria) and Syto9-stained (green, live bacteria) (FIG. 11B) P. aeruginosa and MRSA biovolumes and CFU counts (purple dots) for the above groups. Biovolume data are mean values of three independent replicates.
(§4) Biofilm experiments were carried out on glass slides with both Pseudomonas aeruginosa and MRSA. The therapeutic performance of the broad-spectrum antibiotic cefoperazonesulbactam (CFP-SUL) (Sheu et al., 2020) was evaluated on its own and in combination with deferasirox, ExBT, and ExPhos using the live/dead biofilm caption viability assay (propidium iodide (PI): dead, red; Syto9: live, green).

MRSA biofilms = assay: Live/dead biofilm viability assay on glass slides; type: cell-based, Staphylococcus aureus; conditions: CFP-SUL 16 µg/mL alone or combined with chelator 64 µg/mL
Procedure: as §3, §4

[5] = tested on: alkaline phosphatase (ALP); assay: Alkaline phosphatase response of the pro-chelator (fluorescence); type: biochemical; conditions: 15 µM, ALP 0-64 U
Excerpt: This ratiometric change in fluorescence emission was ascribed to the gradual and stepwise dephosphorylation of ExPhos, which was confirmed by LC-MS analysis. ExPhos solutions exposed to ALP (64 U ALP) were subsequently treated with increasing concentrations of Fe(III) (as the FeCl3 salt). […] Based on these findings, we considered it likely that ExPhos could serve as an ALP-responsive Fe(III) pro-chelator.
Recently, protected versions of known metal chelators (“prochelators”) have been explored in an effort to avoid premature metal chelation (Wang et al., 2016). The bis-phosphate ester ExPhos was thus prepared as a phosphatase-responsive fluorescent pro-chelator that would permit detection of a disease-based biomarker (i.e., alkaline phosphatase, ALP) (Zhang et al., 2020; McCullough and Barrios, 2020; Haarhaus et al., 2017; Gwynne et al., 2019). […] Timedependent changes in fluorescence emission intensity were also seen. The limit of detection (LoD) was calculated to be 0.016 75 U (measurements performed after 5 min of incubation). The ratiometric change in the fluorescence emission was ascribed to the gradual and stepwise (bis-phosphate ester to monophosphate ester to bisphenol) dephosphorylation of ExPhos (as confirmed by LCMS analyses). This sequential conversion leads to a rapid decrease in the blue emission and a slow increase in the green emission. […]

[6] = tested on: methicillin-resistant Staphylococcus aureus (MRSA, ATCC 43300); assay: Inhibition of drug-resistant bacteria (colonies, cell viability); type: cell-based; conditions: agar and defibrillated amniotic blood
Procedure: Cell viability of (FIG. 4B) MRSA (ATCC 43300) and (FIG. 4C) VRE (ATCC 51299) before and after treatment with ExBT, ExJade, ExPhos, and arbekacin (15 µM).
More importantly, two clinically relevant gram-positive, drug-resistant bacteria, methicillin-resistant Staphylococcus aureus (MRSA, ATCC 43300) and vancomycin-resistant Enterococcus faecalis (VRE, ATCC 51299) with high ALP activity were then used to evaluate further the therapeutic potential of these ExJade derivatives. Again, arbekacin was used as a positive control. […] The observed inhibition of VRE is of particular significance since there are few clinically available treatments for this multidrug-resistant bacterium.
as §2

[7] = 24 h incubation, read-out: IC50 (24 h)
[8] = 72 h incubation, read-out: IC50 (72 h)

IC50 [2, 7] [µM]	IC50 [2, 8]	SMILES	solubility in aqueous media [1]	inhibition of bacterial growth [3]	inhibition of bacterial growth [4]	other results
–	–	O=C(O)c1ccc(-n2nc(-c3ccccc3O)nc2-c2ccccc2O)cc1 [Compound 1, deferasirox, reference compound]	good solubility	–	–	cytotoxicity when cells were supplemented with FeCl3 ([2]; A549, 50 µM FeCl3, 72 h of exposure): no longer produced any observable cytotoxicity; IC50 ([2]; Homo sapiens, 24 h incubation, read-out: IC50 (24 h)): > 50 µM; IC50 ([2]; Homo sapiens, 72 h incubation, read-out: IC50 (72 h)): 8.5 µM
21 ± 3	1.6 µM and 2.5 µM	COC(=O)c1ccc(-n2nc(-c3ccccc3O)nc2-c2ccccc2O)cc1 [Compound 2]	–	–	–	–
–	–	Oc1ccccc1-c1nc(-c2ccccc2O)n(-c2ccccc2)n1 [ExPh]	insoluble aggregates	capable of inhibiting the growth	capable of inhibiting the growth	–
> 50	2.6 µM and 3.6 µM	O=C(c1ccc(-n2nc(-c3ccccc3O)nc2-c2ccccc2O)cc1)N1CCOCC1 [Compound 4]	–	–	–	–
–	–	O=P(O)(O)Oc1ccccc1-c1nc(-c2ccccc2OP(=O)(O)O)n(-c2ccc(-c3nc4ccccc4s3)cc2)n1 [ExPhos]	–	capable of inhibiting the growth	capable of inhibiting the growth	antibiofilm effect (P. aeruginosa biofilms): enhanced; antibiofilm effect (MRSA biofilms): enhanced; change in fluorescence emission in the presence of ALP [5]: dose dependent change; inhibitory activity in blood containing medium [6]: remaining strong; cytotoxicity towards A549 cells ([2]; pro-chelator, in words): no significant cytotoxicity
–	–	Oc1ccccc1-c1nc(-c2ccccc2O)n(-c2ccc(-c3nc4ccccc4s3)cc2)n1 [ExBT]	insoluble aggregates	capable of inhibiting the growth	capable of inhibiting the growth	antibiofilm effect (P. aeruginosa biofilms): enhanced; antibiofilm effect (MRSA biofilms): enhanced; inhibitory activity in blood containing medium [6]: remaining strong

SMILES	IC50 [2, 7] [µM]	IC50 [2, 8]	solubility in aqueous media [1]	inhibition of bacterial growth [3]	inhibition of bacterial growth [4]	other results
O=C1[O][Pt]2([NH][C@@H]3CCCC[C@H]3[NH]2)[O]C1=O [Ox-Pt, oxaliplatin, reference compound]	> 50	0.5 ± 0.1 µM	–	–	–	–
